From US20240238248A1, “PHARMACEUTICAL COMPOSITION FOR USE IN TREATING CEREBRAL INFARCTION” (Ji Xing Pharmaceuticals Hong Kong Limited, priority 2021, published 2024)
Where two headings read alike, the source gives them in different places.

Legend:
[1] = Phase I test for healthy persons: pharmacokinetics; format: in vivo, human; conditions: for Cmax / AUC(0-t): iv; for AUC(0-t): read-out: AUC0-24 (converted)
Method: (§1) Phase I test (placebo-control randomized double-blind test) for healthy adult males was carried out. Five cohorts each was constituted of 8 persons (active drug was administered to 6 person and a placebo was administered to 2 person) were used in the test. TMS-007 (SMTP-7 sodium salt preparation) or a placebo was administered intravenously once at a dose of 0.05, 0.25, 1, 3, and 6 mg/kg (equivalent) over 31 minutes (bolus over 1 minute+continuous administration over 30 minutes). The subjects determined to be eligible by a screening test were hospitalized the day before administration. Day 3 from completion of administration, the subjects were allow to leave the hospital. Day 7 from completion of administration, post (follow-up) examination was carried out for safety, tolerance and PK in the period up to Day 7.

[2] = Phase II single dose study: pharmacokinetics (plasma TMS-007 concentration); format: in vivo, human; conditions: for concentration at 31 min / concentration at 2 h: human, plasma, intravenous, patients, read-out: plasma TMS-007 concentration (mean±standard deviation); for concentration at 31 min: 31 minutes after administration; for concentration at 2 h: 2 hours after the administration
Method: (§2) To patients with acute cerebral infarction within 12 hours after onset, TMS-007 (SMTP-7 sodium salt preparation)) or a placebo were administered intravenously once (bolus over 1 minute+continuous injection over 30 minutes). The ratio of number of patients to which an active drug (TMS-007 sodium salt preparation) is to be administered relative to the number of patients to which a placebo is to be administered is set at 2:1 in the first and second cohorts and 1:1 in the third cohort as shown in Table 1 below.
(§3) • Safety (e.g., extracranial hemorrhage, major hemorrhage) up to Day 7 after administration • Symptomatic intracranial hemorrhage and non-symptomatic intracranial hemorrhage within 24 hours after administration • Value of mRS on Day 90 after administration • A rate of recanalization observed in an MRA image of 24 hours after administration • PK (concentration of unchanged form of TMS-007, Cmax, AUC) when TMS-007 was administered
In the PK analysis set, the dose groups except the placebo group were subjected to counting/analysis. The plasma TMS-007 concentrations (original scale value, mean±standard deviation) of the TMS-007 (1, 3, 6 mg/kg) groups (hereinafter described in the same order) 31 minutes after administration of a study drug were 7.294±1.472, 29.28±8.425 and 52.19±12.76 μg/mL, respectively; the plasma TMS-007 concentrations 2 hours after the administration were 0.1379±0.09777, 0.8970±0.5752 and 3.033±2.924 μg/mL, respectively. With respect to the plasma concentration value (logarithmic conversion value) of a study drug 31 minutes after initiation of administration, difference between doses was evaluated by one-way ANOVA using a dose as a factor. As a result, p value was less than 0.0001 and difference was statistically significant
When the dose proportionality of plasma TMS-007 concentration of the investigational new drug 31 minutes after initiation of administration, was evaluated, a point estimation value (two-sided 95% confidence interval) of slope (b) of a regression equation of power model was 1.042 (0.895-1.189). From this, linearity of TMS-007 in the dose range of 1 to 6 mg/kg was confirmed (see, FIG. 11).

[3] = tested on: mice, rats and monkeys; test: Pharmacological tests using mice, rats and monkeys; format: in vivo; conditions: dose of 1 to 10 mg/kg
Method: (§4) Cmax and AUC0-24 values when TMS-007 was administered to rats and monkeys were as follows.

[4] = Plasma pharmacokinetics in rats (repeated-dose study); format: in vivo; conditions: rat, iv, male rats, 12 mg/kg-dose group, initial day of repeated-dose study, average
Method: (§5) Rats (12 males and 12 females) under neither anesthesia nor unrestrained condition were repeatedly and intravenously given TMS-007 (preparation of a sodium-salt thereof) at a dose of 2.4, 12 and 60 mg/kg (continuously over 30 minutes) once daily for two weeks. The day after completion of repeated administration, the rats were subjected to autopsy. As a result, NOAEL of the toxicity test of rats by repeated administration was determined to be 60 mg/kg or more.
as §4

[5] = tested on: healthy adult males; test: Phase I test for healthy persons: safety and tolerance; format: in vivo, human
Method: as §1

[6] = Plasma pharmacokinetics in monkeys (extended single-dose and repeated-dose study); format: in vivo; conditions: monkey, iv, male monkeys, 10 mg/kg-dose group, extended single-dose study and repeated-dose study (first day), average
Method: (§6) Cynomolgus monkey (3 males per group and 3 females per group) under neither anesthesia nor unrestrained condition were repeatedly and intravenously given TMS-007 (preparation of a sodium-salt thereof) at a dose of 3, 10 and 30 mg/kg (continuously over 30 minutes) once daily for two weeks. The day after completion of repeated administration, the monkeys were subjected to autopsy. As a result, NOAEL of the toxicity test of cynomolgus monkeys by repeated administration was determined to be 10 mg/kg or more in both male and female groups.
as §4

[7] = Toxicity test by two-week repeated administration to cynomolgus monkeys; conditions: both sexes, cynomolgus monkey, in vivo, male and female, intravenous over 30 minutes once daily for two weeks, 3, 10 and 30 mg/kg
Method: as §6

[8] = tested on: cerebral infarction patients; test: Phase II single dose study for cerebral infarction patients: safety; format: in vivo
Method: (§7) Randomized, double blind, placebo control, single dose, intravenous administration, parallel between groups and dose escalation regimen
(§8) Cerebral infarction patients within 12 hours from onset are used as subjects. Test subjects (90 patients: first cohort: 9, second cohort: 27, third cohort: 54) are determined in accordance with the following selection criteria and exclusion criteria.
To patients with acute cerebral infarction within 12 hours after onset, TMS-007 (SMTP-7 sodium salt preparation)) or a placebo were administered intravenously once (bolus over 1 minute+continuous injection over 30 minutes).
The frequency of occurrence of symptomatic intracranial hemorrhage with NIHSS score worsening of 4 or more points up to 24 hours after administration of TMS-007

[9] = tested on: cerebral infarction patients; test: Phase II single dose study: mRS on Day 90 after administration; format: in vivo, human; conditions: for Odds ratio, rate of obtaining outcome of mRS0-2: Day 90 after administration
Method: as §7, §8, §2, §3
In the FAS group, to mRS evaluation of individual dose groups (mRS 0-1 is assigned 1, mRS 2-6 is assigned 0) Day 90 after administration (Day 90), a logistic model using response, dose groups (TMS-007-combined group and placebo group), mRS on the base line, NIHSS score, age, blood pressure (systolic blood pressure) as explanatory variables was applied, odds ratio and 95% confidence interval of the TMS-007-combined group relative to the placebo group were estimated. The same estimation was carried out by using TMS-007 dose groups as the dose groups relative to the placebo group. More specifically, the odds ratios of individual TMS-007 dose groups relative to the placebo group and 95% confidence interval were estimated.

[10] = tested on: cerebral infarction patients observed to have occlusion; test: Phase II single dose study: recanalization rate evaluated by MRA; format: in vivo, human; conditions: TMS-007 administration group vs placebo group
Method: as §2, §3
The recanalization rate was evaluated by MRA. Patients (39 cases) observed to have occlusion at the time of enrollment and observed to be “canalized” or “partially canalized” on Day 2 were evaluated as recanalization cases. The ratio of the recanalization cases was 14/[…] cases (58.3%) in the TMS-007 administration groups and 4/15 cases (26.7%) in the placebo group. […]

[11] = Toxicity test by two-week repeated administration to rats; conditions: both sexes, rat, in vivo, intravenous over 30 minutes once daily for two weeks, 2.4, 12 and 60 mg/kg
Method: as §5

[12] = male, human, blood, 0.05 mg/kg single i.v. over 31 minutes
[13] = male, human, blood, 0.25 mg/kg single i.v. over 31 minutes
[14] = male, human, blood, 1 mg/kg single i.v. over 31 minutes
[15] = male, human, blood, 3 mg/kg single i.v. over 31 minutes
[16] = male, human, blood, 6 mg/kg single i.v. over 31 minutes
[17] = TMS-007 combined group to placebo group, Day 90, FAS

In the case of `CC(C)=CCC/C(C)=C/CC[C@]1(C)Oc2c(c(O)cc3c2CN(CCC[C@@H](C(=O)O)N2Cc4c(cc(O)c5c4O[C@@](C)(CC/C=C(\C)CCC=C(C)C)[C@@H](O)C5)C2=O)C3=O)C[C@@H]1O` [TMS-007, (S)-2,5-bis((2S,3S)-2-((E)-4,8-dimethylnona-3,7-dien-1-yl)-3,5-dihydroxy-2-methyl-7-oxo-3,4,7,9-tetrahydropyrano[2,3-e]isoindol-8(2H)-yl)pentanoic acid], the “Unchanged form of TMS-007 in urine” value ([1]; any one of the cohorts) is reported as “not observed”, the “time of peak blood concentration” value ([1]; immediately after completion of administration, all cohorts) is reported as 31 min and the half-life ([1]; male, human, blood, intravenous, regardless of the dose (0.05-6 mg/kg), read-out: half-lives in blood) is reported as 10 to 15 min. It also gave a Cmax [1, 12] of 0.346 µg/mL, an AUC(0-t) [1, 12] of 0.252 µg·h/mL and a Cmax [1, 13] of 1.86 ± 0.15 µg/mL. For the same molecule, the AUC(0-t) [1, 13] was 1.39 µg·h/mL, the Cmax [1, 14] was 6.7 µg/mL and the AUC(0-t) [1, 14] was 5.02 µg·h/mL. The Cmax [1, 15] was 20.3 µg/mL, the AUC(0-t) [1, 15] was 16 µg·h/mL and the Cmax [1, 16] was 49.9 ± 5.2 µg/mL. The AUC(0-t) [1, 16] was 38.8 µg·h/mL, the concentration at 31 min ([2]; 1 mg/kg) was 7.29 ± 1.47 µg/mL and the concentration at 2 h ([2]; 1 mg/kg) was 0.138 ± 0.0978 µg/mL. The concentration at 31 min ([2]; 3 mg/kg) was 29.3 ± 8.43 µg/mL, the concentration at 2 h ([2]; 3 mg/kg) was 0.897 ± 0.575 µg/mL and the concentration at 31 min ([2]; 6 mg/kg) was 52.2 ± 12.8 µg/mL. For the same molecule, the concentration at 2 h ([2]; 6 mg/kg) was 3.03 ± 2.92 µg/mL, the “slope (b) of regression equation of power model, dose proportionality (two-sided 95% confidence interval)” value ([2]; plasma concentration 31 minutes after initiation of administration, 1 to 6 mg/kg) was 1.042 (0.895-1.189) and the medicinal effects [3] was “reduction of the area of infarction and improvement of neurological symptoms”. For the same molecule, the Cmax [4] was 20.2 µg/mL, the AUC(0-t) ([4]; read-out: AUC0-24 (converted)) was 25.7 µg·h/mL and the Adverse events observed ([5]; single i.v. 0.05-6 mg/kg) was “all non-serious/mild/restorability”. The “indication of hemorrhagic risk” value ([5]; single i.v. dose-escalation trial) was “not observed”, the Cmax [6] was 45.8 to 58.6 µg/mL and the AUC(0-t) ([6]; read-out: AUC0-24) was 32.2 to 40.2 µg·h/mL. The NOAEL at 2 weeks [7] was no less than 10 mg/kg, the “occurrence of major hemorrhage” value ([8]; human, in vivo) was “not observed” and the symptomatic intracranial hemorrhage ([8]; human, in vivo) was “not observed”. For the same molecule, the “frequencies of adverse event, serious adverse event, side effect, serious side effect, adverse event leading to discontinuation vs placebo (Fisher's exact test)” value ([8]; individual TMS-007 groups and combined group, up to Day 90) was “not statistically significant”, the “symptomatic intracranial hemorrhage with NIHSS score worsening of 4 or more points” value ([8]; up to 24 hours after administration, safety analysis set, TMS-007 groups (1, 3, 6 mg/kg)) was “not observed” and the “Estimated value (logistic model, dose group) for mRS 0-1” value ([9]; 1 mg/kg to placebo group, Day 90, FAS) was −2.425. The “Odds ratio, rate of obtaining outcome of mRS0-2” value (shortened to “Odds ratio, rate”) ([9]; 1 mg/kg) was 0.292, the “Estimated value (logistic model, dose group) for mRS 0-1” value ([9]; 3 mg/kg to placebo group, Day 90, FAS) was −0.726 and the “Odds ratio, rate” value ([9]; 3 mg/kg) was 0.585. For the same molecule, the “Estimated value (logistic model, dose group) for mRS 0-1” value ([9]; 6 mg/kg to placebo group, Day 90, FAS) was −1.207, the “Odds ratio, rate” value ([9]; 6 mg/kg) was 0.506 and the “Estimated value (logistic model, dose group) for mRS 0-1” value [9, 17] was −1.206. The “Odds ratio of mRS (mRS 0 and 1 assigned 1, mRS 2-6 assigned 0)” value [9, 17] was 0.299, the “Odds ratio, rate” value ([9]; TMS-007 combined group) was 0.500 and the “odds ratio of recanalization” value [10] was 4.23. It also gave an NOAEL at 2 weeks [11] of no less than 60 mg/kg.
